Reference: patent EP4772500A1, “NOVEL ISOXAZOLE COMPOUND AS TM4SF5-SPECIFIC INHIBITOR AND USE THEREOF” (Seoul National University R&DB Foundation, priority 2023, dated 2025)

Each molecule was assayed against T1, TM4SF5 and PD-L1 (Homo sapiens, UniProt O14894) (assay: Pulldown: binding between TM4SF5 and PD-L1). Conditions: 2.5 µM, 24 hours, SNU449 (FIG. 17c).
T1 construct: expressed in transfected cells; host or cells: SNU449 cells stably expressing TM4SF5, additionally transfected with PD-L1-HA cDNA
T1 sequence (O14894 1-197): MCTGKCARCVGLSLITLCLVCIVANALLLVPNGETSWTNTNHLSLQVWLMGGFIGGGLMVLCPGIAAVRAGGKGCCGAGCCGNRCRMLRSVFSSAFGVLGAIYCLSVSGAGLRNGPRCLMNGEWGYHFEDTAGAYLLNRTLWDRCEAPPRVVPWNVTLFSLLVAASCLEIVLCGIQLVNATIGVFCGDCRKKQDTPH
Format: cell-based
Protocol: Cells were cultured to ~60% density in a cell incubator at 37°C and 5% CO2, and then transfected using PEI and cultured in a cell incubator at 37°C for two days. After cultivation, cell extracts were obtained by the method described above. After precipitating a desired protein from the cell extracts using an immunoprecipitation method, the binding proteins were identified by the Western blot technique described above. Specifically, cells cultured in a 100 mm cell culture dish for two days were washed twice with PBS, and protease inhibitor cocktails (GenDepot, USA) were added to 500 µl of immunoprecipitation lysis buffer (0.5% Triton X-100 or Brij 58, 40 mM HEPES, 150 mM NaCl, 1 mM EDTA, pH 7.4), followed by treatment at 4°C for 15 minutes. After collecting the cells, centrifugation was performed at 12,000x g at 4°C for 15 minutes, and the supernatant was transferred to a new microcentrifuge tube to obtain a cell extract. Proteins therein were quantified using a BCA reagent (Thermo Scientifics, USA). An electrophoresis sample was prepared by adding 4x laemmli sample buffer to a portion of the quantified sample and boiling at 100°C for 5 minutes. For immunoprecipitation, Streptavidin Agarose Resin (Thermo Fisher Scientific) or anti-HA antibody-coated Sepharose beads were added in proportion to the quantified protein amount, followed by rotation at 4°C for 4 hours, and then centrifugation was performed at 7,000x g at 4°C for 5 minutes and the supernatant was discarded. […]
(a-b) The same number of SNU449-EV or SNU449-TM4SF5 cells were transferred to culture vessels and cultured overnight. […] From the cell extracts, Strep-TM4SF5 was pulled down with strep-agarose beads, and then Western blotting was performed using antibodies against the indicated proteins, or the intracellular localization and expression level of TM4SF5 (red fluorescence) and PD-L1 (green fluorescence) were confirmed with a fluorescence microscope through immunostaining along with DNA staining using DAPI.

Row | SMILES | binding between TM4SF5 and PD-L1
1 | CC(=O)Nc1ccc(-c2cc(-c3ccc(O)cc3)no2)cc1 [ST-5-001, N-(4-(3-(4-hydroxyphenyl)isoxazole-5-yl)phenyl)acetamide] | decreased and inhibited
2 | Cc1ccc(C(=O)Nc2ccc(-c3cc(-c4ccc(O)cc4)no3)cc2)cc1 [ST-5-002, N-(4-(3-(4-hydroxyphenyl)isoxazole-5-yl)phenyl)-4-methylbenzamide] | decreased and inhibited
3 | Cc1ccc(S(=O)(=O)Nc2ccc(C(=O)/C=C/c3ccc(O)cc3)cc2)cc1 [TSAHC, 4'-(p-toluenesulfonylamino)-4-hydroxychalcone, reference compound] | inhibition
